Measured values: patent US12702657B2, “Treatment and prevention of dengue disease” (Janssen Pharmaceuticals, Inc., priority 2019, dated 2026)

System: DENV 1/45AZ5
Assay: Antiviral activity against DENV 1/45AZ5 in non-human primates, prophylactic setting
Format: in vivo, rhesus monkeys (Macaca mulatta)
Details: 6 mg/kg q.d. oral, day -3 to day 10, follow-up to day 28 post infection
Procedure: The antiviral activity of compound (a) DENV in a prophylactic setting was assessed in rhesus monkeys (Macaca mulatta) infected with strain DENV 1/45AZ5. Oral dosing of compound (a) (6 mg/kg) was started 3 days before infection with DENV (day −3) and continued with daily dosing until 10 days post infection. On day 0, the animals were intradermally inoculated with 0.5 mL of DENV 1/45AZ5 (1.2×105 plaque-forming units [PFU/mL]). Animals were followed up until day 28 post infection (FIG. 13 X).
The rhesus monkeys were divided in 2 groups representing the following treatment regimens: • (i) Vehicle 100% PEG400 (n=6) • (ii) Group 1: 6 mg/kg/dose, q.d. (n=6),

With COc1cc(NC(C(=O)c2c[nH]c3ccc(OC(F)(F)F)cc23)c2ccc(Cl)cc2OC)cc(S(C)(=O)=O)c1 (stereo not shown) [compound (a)] the “DENV RNA during the complete study period” value was “undetectable”.
